Measurements from PubChem BioAssay AID330 (DTP/NCI, 2004).
Several values for one entry are separate records, joined by “and”; a condition that tells them apart may be missing. Identical values can stand only once. Inconclusive results and toxic doses are left out.

Tested on: P388 leukemia ip, CD2F1 mice, survival T/C
Experiment: NCI In Vivo Anticancer Drug Screen. Data for tumor model P388 Leukemia (intraperitoneal) in CD2F1 (CDF1) mice
Settings: endpoint: median survival time, higher = longer survival
Method in brief: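 Mice carrying the transplanted tumor received test compound or vehicle. Survival was recorded in each group, and the value is the treated-group measurement divided by that of the vehicle-treated control group.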

[1] = dose: 50.0 mg/kg/injection, schedule: Q01DX009 (ip), vehicle: Klucel (hydroxypropylcellulose) (HPC)
[2] = dose: 200.0 mg/kg/injection, schedule: Q01DX009 (ip), vehicle: Klucel (hydroxypropylcellulose) (HPC)
[3] = dose: 12.5 mg/kg/injection, schedule: Q01DX009 (ip), vehicle: saline with Tween-80
[4] = dose: 50.0 mg/kg/injection, schedule: Q01DX009 (ip), vehicle: saline with Tween-80
[5] = dose: 100.0 mg/kg/injection, schedule: Q01DX009 (ip), vehicle: saline with Tween-80
[6] = dose: 50.0 mg/kg/injection, schedule: Q01DX005 (ip), vehicle: Klucel (hydroxypropylcellulose) (HPC)
[7] = dose: 100.0 mg/kg/injection, schedule: Q01DX005 (ip), vehicle: Klucel (hydroxypropylcellulose) (HPC)
[8] = dose: 200.0 mg/kg/injection, schedule: Q01DX005 (ip), vehicle: Klucel (hydroxypropylcellulose) (HPC)
[9] = dose: 50.0 mg/kg/injection, schedule: Q04DX002 (ip), vehicle: saline with Tween-80
[10] = dose: 100.0 mg/kg/injection, schedule: Q01DX001 (ip), vehicle: saline
[11] = dose: 200.0 mg/kg/injection, schedule: Q01DX001 (ip), vehicle: saline
[12] = dose: 200.0 mg/kg/injection, schedule: Q01DX009 (ip), vehicle: saline with Tween-80

## C=C1C(=O)OC2CC(C)C3OC3C(=O)C(C)(O)C(O)C(O)C12 (stereo not drawn) (tested in a mixture with another compound)
dose: 6.25 mg/kg/injection, schedule: Q01DX009 (ip), vehicle: Klucel (hydroxypropylcellulose) (HPC)
  T/C: 104 % of control
dose: 12.5 mg/kg/injection, schedule: Q01DX009 (ip), vehicle: Klucel (hydroxypropylcellulose) (HPC)
  T/C: 101 % of control and 117 % of control
dose: 25.0 mg/kg/injection, schedule: Q01DX009 (ip), vehicle: Klucel (hydroxypropylcellulose) (HPC)
  T/C: 110 % of control and 123 % of control
[1]
  T/C: 123 % of control
[2]
  T/C: 119 % of control

## Cc1csc(=NCc2cccnc2)n1C
dose: 6.25 mg/kg/injection, schedule: Q01DX009 (ip), vehicle: saline
  T/C: 100 % of control
dose: 12.5 mg/kg/injection, schedule: Q01DX009 (ip), vehicle: saline
  T/C: 107 % of control

## NC(N)=N/N=C/c1ccc(-c2ccccc2)cc1
dose: 6.25 mg/kg/injection, schedule: Q01DX009 (ip), vehicle: saline with Tween-80
  T/C: 104 % of control
dose: 6.25 mg/kg/injection, schedule: Q04DX003 (ip), vehicle: saline with Tween-80
  T/C: 100 % of control
[3]
  T/C: 104 % of control
dose: 12.5 mg/kg/injection, schedule: Q04DX003 (ip), vehicle: saline with Tween-80
  T/C: 100 % of control
dose: 25.0 mg/kg/injection, schedule: Q04DX003 (ip), vehicle: saline with Tween-80
  T/C: 100 % of control

## CCN(CC)Cc1c(C)[nH]c2ccccc2c1=O
[4]
  T/C: 109 % of control
[5]
  T/C: 118 % of control

## CCCCCC(=O)SCC(=O)OCC(=O)[C@]1(O)Cc2c(O)c3c(c(O)c2[C@@H](OC2CC(N)C(O)C(C)O2)C1)C(=O)c1c(OC)cccc1C3=O (stereo partly drawn)
dose: 0.78 mg/kg/injection, schedule: Q01DX009 (ip), vehicle: water
  T/C: 169 % of control
dose: 1.56 mg/kg/injection, schedule: Q01DX009 (ip), vehicle: water
  T/C: 174 % of control and 179 % of control
dose: 3.13 mg/kg/injection, schedule: Q01DX009 (ip), vehicle: water
  T/C: 194 % of control and 209 % of control
dose: 6.25 mg/kg/injection, schedule: Q01DX009 (ip), vehicle: water
  T/C: 104 % of control

## CC1(C)CC(C)(O)N(CCc2ccccc2)C(=S)N1 (stereo not drawn)
[6]
  T/C: 106 % of control
[7]
  T/C: 98 % of control
[8]
  T/C: 98 % of control

## Cc1nc(N(C)C)[nH]c(=O)c1N=Nc1ccc(Cl)cc1
[6]
  T/C: 105 % of control
[7]
  T/C: 114 % of control
[8]
  T/C: 105 % of control

## Nc1ncnc2c1c(-c1ccccc1)cn2-c1ccccc1
dose: 60.0 mg/kg/injection, schedule: Q01DX005 (ip), vehicle: saline with Tween-80
  T/C: 103 % of control
dose: 120.0 mg/kg/injection, schedule: Q01DX005 (ip), vehicle: saline with Tween-80
  T/C: 104 % of control
dose: 240.0 mg/kg/injection, schedule: Q01DX005 (ip), vehicle: saline with Tween-80
  T/C: 98 % of control

## COC(=O)[C@H](C)[C@@H]1CC[C@](C)(CCC2=C(C)CCCC2(C)C)OO1
dose: 4.38 mg/kg/injection, schedule: Q01DX005 (ip), vehicle: saline + Tween-80 + alcohol
  T/C: 93 % of control
dose: 8.75 mg/kg/injection, schedule: Q01DX005 (ip), vehicle: saline + Tween-80 + alcohol
  T/C: 100 % of control
dose: 17.5 mg/kg/injection, schedule: Q01DX005 (ip), vehicle: saline + Tween-80 + alcohol
  T/C: 94 % of control
dose: 35.0 mg/kg/injection, schedule: Q01DX005 (ip), vehicle: saline + Tween-80 + alcohol
  T/C: 107 % of control

## Oc1ccc2[nH]c3cc4ccncc4cc3c2c1
dose: 25.0 mg/kg/injection, schedule: Q04DX002 (ip), vehicle: saline with Tween-80
  T/C: 106 % of control
[9]
  T/C: 97 % of control
dose: 100.0 mg/kg/injection, schedule: Q04DX002 (ip), vehicle: saline with Tween-80
  T/C: 122 % of control
dose: 200.0 mg/kg/injection, schedule: Q04DX002 (ip), vehicle: saline with Tween-80
  T/C: 115 % of control

## CC(O)CCC(=O)c1ccoc1 (stereo not drawn)
dose: 1.87 mg/kg/injection, schedule: Q01DX005 (ip), vehicle: saline
  T/C: 97 % of control
dose: 3.75 mg/kg/injection, schedule: Q01DX005 (ip), vehicle: saline
  T/C: 100 % of control
dose: 7.5 mg/kg/injection, schedule: Q01DX005 (ip), vehicle: saline
  T/C: 100 % of control and 96 % of control
dose: 15.0 mg/kg/injection, schedule: Q01DX005 (ip), vehicle: saline
  T/C: 100 % of control and 93 % of control
dose: 30.0 mg/kg/injection, schedule: Q01DX005 (ip), vehicle: saline
  T/C: 109 % of control

## CNC(=S)N/N=C/CCCC/C=N/NC(=S)NC
[10]
  T/C: 96 % of control
[11]
  T/C: 96 % of control
dose: 400.0 mg/kg/injection, schedule: Q01DX001 (ip), vehicle: saline
  T/C: 101 % of control

## O=S(=O)(N=N/C=C1\C=CC=CN1O)c1cccs1
[9]
  T/C: 100 % of control
dose: 600.0 mg/kg/injection, schedule: Q04DX002 (ip), vehicle: saline with Tween-80
  T/C: 117 % of control

## C[Si](C)(C[P+](=O)[O][Sn]([CH3])([CH3])[O][P+](=O)C[Si](C)(C)c1ccccc1)c1ccccc1 (stereo not drawn)
dose: 3.75 mg/kg/injection, schedule: Q01DX005 (ip), vehicle: saline with Tween-80
  T/C: 100 % of control
dose: 7.5 mg/kg/injection, schedule: Q01DX005 (ip), vehicle: saline with Tween-80
  T/C: 93 % of control

## CCN(CC)CCOC(=O)c1ccc(N=NC2Sc3nc4ccccc4n3C2=O)cc1 (stereo not drawn)
dose: 7.5 mg/kg/injection, schedule: Q01DX005 (ip), vehicle: Klucel (hydroxypropylcellulose) (HPC)
  T/C: 92 % of control
dose: 15.0 mg/kg/injection, schedule: Q01DX005 (ip), vehicle: Klucel (hydroxypropylcellulose) (HPC)
  T/C: 96 % of control
dose: 30.0 mg/kg/injection, schedule: Q01DX005 (ip), vehicle: Klucel (hydroxypropylcellulose) (HPC)
  T/C: 96 % of control

## CC1(c2ccccc2)NC(=O)NC1=O (stereo not drawn)
dose: 50.0 mg/kg/injection, schedule: Q01DX001 (ip), vehicle: saline
  T/C: 100 % of control
[10]
  T/C: 110 % of control
[11]
  T/C: 115 % of control

## O=c1cnn2c(n1)OC1C(O)C(CO)OC12 (stereo not drawn)
[4]
  T/C: 97 % of control
[5]
  T/C: 97 % of control
[12]
  T/C: 93 % of control

## c1ccc2c(c1)nc1n2CC2(CS1)CSc1nc3ccccc3n1C2
[4]
  T/C: 88 % of control
[5]
  T/C: 91 % of control

## COC(=O)C1C(=O)C2CCC1C(=O)C2C(=O)OC (stereo not drawn)
[4]
  T/C: 93 % of control
[5]
  T/C: 93 % of control
[12]
  T/C: 98 % of control

## C=CCc1cc2c(cc1Cc1ccc(OC)cc1)OCO2
dose: 50.0 mg/kg/injection, schedule: Q01DX005 (ip), vehicle: distilled water + alcohol
  T/C: 109 % of control
dose: 100.0 mg/kg/injection, schedule: Q01DX005 (ip), vehicle: distilled water + alcohol
  T/C: 104 % of control
dose: 200.0 mg/kg/injection, schedule: Q01DX005 (ip), vehicle: distilled water + alcohol
  T/C: 109 % of control

## COC(=O)C1=C/C=C\CN(CCC2OCCO2)/C=C\1C(=O)OC
dose: 100.0 mg/kg/injection, schedule: Q01DX001 (ip), vehicle: alcohol
  T/C: 99 % of control
dose: 200.0 mg/kg/injection, schedule: Q01DX001 (ip), vehicle: alcohol
  T/C: 100 % of control
dose: 400.0 mg/kg/injection, schedule: Q01DX001 (ip), vehicle: alcohol
  T/C: 100 % of control

## CC1(C)COC(c2cc(Br)ccc2Br)=N1
[3]
  T/C: 100 % of control
dose: 25.0 mg/kg/injection, schedule: Q01DX009 (ip), vehicle: saline with Tween-80
  T/C: 102 % of control
[4]
  T/C: 97 % of control
[5]
  T/C: 97 % of control
[12]
  T/C: 101 % of control

## CCCCCCCCCCCCCCCCOc1ccc(S(=O)(=O)Nc2ccc(N)cc2O)cc1
[1]
  T/C: 110 % of control
dose: 100.0 mg/kg/injection, schedule: Q01DX009 (ip), vehicle: Klucel (hydroxypropylcellulose) (HPC)
  T/C: 94 % of control
[2]
  T/C: 112 % of control

## CCOC(C#CC(=O)C(C)C)OCC
dose: 60.0 mg/kg/injection, schedule: Q01DX005 (ip), vehicle: saline
  T/C: 101 % of control
dose: 120.0 mg/kg/injection, schedule: Q01DX005 (ip), vehicle: saline
  T/C: 98 % of control
dose: 240.0 mg/kg/injection, schedule: Q01DX005 (ip), vehicle: saline
  T/C: 101 % of control

## CCn1c2ccccc2c2ccc(N=Nc3ccc(N(C)C)cc3)cc21
[4]
  T/C: 111 % of control and 112 % of control and 113 % of control
[5]
  T/C: 108 % of control and 118 % of control

## CN(C)CCC1CC(O)CCC1(C)O (stereo not drawn)
dose: 50.0 mg/kg/injection, schedule: Q01DX005 (ip), vehicle: saline
  T/C: 98 % of control
dose: 100.0 mg/kg/injection, schedule: Q01DX005 (ip), vehicle: saline
  T/C: 100 % of control
dose: 200.0 mg/kg/injection, schedule: Q01DX005 (ip), vehicle: saline
  T/C: 102 % of control
